In ChEMBL document CHEMBL4184202, “New lignans attenuating cognitive deterioration of Aβ transgenic flies discovered in Acorus tatarinowii” (Bioorg Med Chem Lett, 2018):
Calls of active or inactive are those of the source. The rule behind the calls is not given here.

Tested on: Drosophila melanogaster
Test: Antialzheimer disease activity in heterozygous transgenic Alzheimer's disease model fruit fly under control of elav-Gal4'C155 (P35*H29.3) expressing Abeta42 assessed as attenuation of cognitive deterioration by measuring increase in performance index by Pavlovian olfactory test
Format: functional, organism-based

COc1ccc(C(=O)[C@H]2CO[C@@H](c3ccc(OC)c(OC)c3)[C@@H]2C)cc1OC (racemic)
Activity: Active

COc1cc([C@H]2O[C@@H](c3ccc(OC)c(OC)c3)[C@H](C)[C@@H]2C)ccc1O
Activity: Active

C/C=C/c1cc(OC)c2c(c1)[C@@H](C)[C@H](c1ccc(OC)c(OC)c1)O2 (relative stereo)
Activity: Active

CC12CC3CC(C)(C1)CC(N)(C3)C2
Activity: Active

C/C=C/c1ccc(O[C@H](C)[C@@H](O)c2cc(OC)c(OC)c(OC)c2)c(OC)c1 (relative stereo)
Activity: Active
